12 compounds from ChEMBL document CHEMBL1127971, “Novel conformationally constrained HIV-1 protease inhibitors: rational design, enzyme inhibition, and X-ray structure of an enzyme-inhibtor complex” (Bioorg Med Chem Lett, 1994) can be followed below.

In this experiment the target is Human immunodeficiency virus type 1 protease (Human immunodeficiency virus 1, UniProt Q72874). Kind of experiment: Inhibition of human immunodeficiency virus type 1 (HIV-1) protease.

Compound `CC(C)[C@H](NC(=O)OCc1ccccc1)C(=O)N[C@@H](Cc1ccccc1)[C@]1(O)CCN([C@@H](Cc2ccccc2)C(=O)N[C@H]2c3ccccc3C[C@H]2O)C1` yielded a half-maximal inhibitory concentration (IC50) of 0.22 µM.
Then `CC(C)(C)OC(=O)N[C@@H](Cc1ccccc1)[C@@]1(O)CCN([C@@H](Cc2ccccc2)C(=O)N[C@H]2c3ccccc3C[C@H]2O)C1`, with 6 µM; and `CC(C)(C)NC(=O)[C@H](CC1CCCCC1)N1CCC(O)([C@H](Cc2ccccc2)NC(=O)OC(C)(C)C)CC1`, with greater than 100 µM.
`CC(C)[C@H](NC(=O)OCc1ccccc1)C(=O)N[C@@H](Cc1ccccc1)C1(O)CCN(CCc2ccccc2)CC1` gave an IC50 of 38.7 µM.
Then `CC(C)(C)NC(=O)[C@H](CC1CCCCC1)N1CC[C@@](O)([C@H](Cc2ccccc2)NC(=O)OC(C)(C)C)C1`, with 37 µM; and `CC(C)(C)OC(=O)N[C@@H](Cc1ccccc1)[C@]1(O)CCCN([C@@H](Cc2ccccc2)C(=O)N[C@H]2c3ccccc3C[C@H]2O)C1`, with greater than 100 µM.
Then `CC(C)C[C@@H](C(=O)NC(C)(C)C)N1CCC(O)([C@H](Cc2ccccc2)NC(=O)[C@@H](NC(=O)OCc2ccccc2)C(C)C)CC1`, with 26.7 µM.
Then `CC(C)(C)OC(=O)N[C@@H](Cc1ccccc1)[C@]1(O)CCN([C@@H](Cc2ccccc2)C(=O)N[C@H]2c3ccccc3C[C@H]2O)C1`, with 0.6 µM.
In turn, `CC(C)C[C@@H](C(=O)NC(C)(C)C)N1CCC[C@@](O)([C@H](Cc2ccccc2)NC(=O)OC(C)(C)C)C1` yielded an IC50 greater than 100 µM.
As for `CC(C)(C)NC(=O)[C@H](CC1CCCCC1)N1CCC[C@](O)([C@H](Cc2ccccc2)NC(=O)OC(C)(C)C)C1`, the figure is greater than 100 µM; as for `CC(C)(C)OC(=O)N[C@@H](Cc1ccccc1)C1(O)CCN([C@@H](Cc2ccccc2)C(=O)N[C@H]2c3ccccc3C[C@H]2O)CC1`, 1.46 µM.
Then `O=C(N[C@@H](Cc1ccccc1)C1(O)CCN([C@@H](Cc2ccccc2)C(=O)N[C@H]2c3ccccc3C[C@H]2O)CC1)O[C@H]1CCOC1`, with 29.7 µM.
